# Assay results from US20240199587A1, “HETEROCYCLIC COMPOUNDS” (Hoffmann-La Roche Inc., priority 2021, published 2024).
# Target: T1, MAGL (Homo sapiens, UniProt Q99685)
# T1 sequence (Q99685 1-303): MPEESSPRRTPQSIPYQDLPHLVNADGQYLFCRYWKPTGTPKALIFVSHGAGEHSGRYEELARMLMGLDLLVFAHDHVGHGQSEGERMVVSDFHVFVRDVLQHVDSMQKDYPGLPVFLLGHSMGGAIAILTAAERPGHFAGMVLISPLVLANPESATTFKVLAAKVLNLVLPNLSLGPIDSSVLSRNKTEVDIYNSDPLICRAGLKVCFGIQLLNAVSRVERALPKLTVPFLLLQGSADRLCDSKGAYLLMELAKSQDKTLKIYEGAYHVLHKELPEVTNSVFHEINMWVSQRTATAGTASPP
# Test: 2-AG assay (MAGL inhibitory activity, hydrolysis of 2-arachidonoylglycerol to arachidonic acid followed by mass spectrometry)
# Type: biochemical
# Conditions: 8 μM 2-arachidonoylglycerol, 15 min pre-incubation, 30 min incubation at RT, RapidFire MS readout
# In short: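 Arachidonic acid released from 8 μM 2-arachidonoylglycerol was quantified by online SPE triple-quadrupole MS (negative ESI, 303.1→259.1), normalised to d8-arachidonic acid internal standard. Reaction ran 30 min at RT after 15 min RT compound pre-incubation with […] MAGL in TRIS/EDTA/Tween-20 buffer, 2.5% DMSO.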
row,Compound,IC50 [nM]
1,"O=C(N1CC(C#Cc2ccc(OC(F)F)cc2)C1)N1CC2(CC(n3cnc(C4CC4)n3)C2)C1 [Example 92, [6-(3-cyclopropyl-1,2,4-triazol-1-yl)-2-azaspiro[3.3]heptan-2-yl]-[3-[2-[4-(difluoromethoxy)phenyl]ethynyl]azetidin-1-yl]methanone]",11.7
2,"O=C(N1CC(Oc2ccc(Cl)cc2F)C1)N1CC2(CC(n3cnc(C4CC4)n3)C2)C1 [Example 99, (3-(4-chloro-2-fluorophenoxy)azetidin-1-yl)(6-(3-cyclopropyl-1H-1,2,4-triazol-1-yl)-2-azaspiro[3.3]heptan-2-yl)methanone]",9.5
3,"Cc1ccc(OC2CN(C(=O)N3CC4(CC(n5cnc(C6CC6)n5)C4)C3)C2)c(Cl)n1 [Example 100, (3-((2-chloro-6-methylpyridin-3-yl)oxy)azetidin-1-yl)(6-(3-cyclopropyl-1H-1,2,4-triazol-1-yl)-2-azaspiro[3.3]heptan-2-yl)methanone]",79.9
4,"O=C(N1CC(OCc2ccc(C(F)(F)F)cc2)C1)N1CC2(CC(n3cnc(C4CC4)c3)C2)C1 [Example 101, [6-(4-cyclopropylimidazol-1-yl)-2-azaspiro[3.3]heptan-2-yl]-[3-[[4-(trifluoromethyl)phenyl]methoxy]azetidin-1-yl]methanone]",42.1
5,"O=C(N1CC(OCc2ccc(C(F)(F)F)cc2F)C1)N1CC2(CC(n3cnc(C4CC4)c3)C2)C1 [Example 102, [6-(4-cyclopropylimidazol-1-yl)-2-azaspiro[3.3]heptan-2-yl]-[3-[[2-fluoro-4-(trifluoromethyl)phenyl]methoxy]azetidin-1-yl]methanone]",51.4
6,"O=C(N1CC(OCc2ccc(C(F)(F)F)c(F)c2)C1)N1CC2(CC(n3cnc(C4CC4)c3)C2)C1 [Example 103, [6-(4-cyclopropylimidazol-1-yl)-2-azaspiro[3.3]heptan-2-yl]-[3-[[3-fluoro-4-(trifluoromethyl)phenyl]methoxy]azetidin-1-yl]methanone]",9.9
7,"O=C(N1CC(OCc2ccc(S(F)(F)(F)(F)F)cc2)C1)N1CC2(CC(n3cnc(C4CC4)c3)C2)C1 [Example 104, [6-(4-cyclopropylimidazol-1-yl)-2-azaspiro[3.3]heptan-2-yl]-[3-[[4-(pentafluoro-λ^6-sulfanyl)phenyl]methoxy]azetidin-1-yl]methanone]",9.7
8,"O=C(N1CC(OCc2ccc(Cl)cc2F)C1)N1CC2(CC(n3cnc(C4CC4)c3)C2)C1 [Example 108, [3-[(4-chloro-2-fluoro-phenyl)methoxy]azetidin-1-yl]-[6-(4-cyclopropylimidazol-1-yl)-2-azaspiro[3.3]heptan-2-yl]methanone]",25
9,"O=C(N1CC(OCc2ccc(F)cc2Cl)C1)N1CC2(CC(n3cnc(C4CC4)c3)C2)C1 [Example 109, [3-[(2-chloro-4-fluoro-phenyl)methoxy]azetidin-1-yl]-[6-(4-cyclopropylimidazol-1-yl)-2-azaspiro[3.3]heptan-2-yl]methanone]",63.5
10,"O=C(N1CC(OCc2ccc(F)cc2F)C1)N1CC2(CC(n3cnc(C4CC4)c3)C2)C1 [Example 110, [6-(4-cyclopropylimidazol-1-yl)-2-azaspiro[3.3]heptan-2-yl]-[3-[(2,4-difluorophenyl)methoxy]azetidin-1-yl]methanone]",65.8
11,"N#Cc1cc(C(F)(F)F)ccc1O[C@H]1C[C@@H]2CN(C(=O)N3CC4(CC(n5cnc(C6CC6)n5)C4)C3)C[C@@H]2C1 [Example 114, 2-[[rac-(3aS,6aR)-2-[6-(3-cyclopropyl-1,2,4-triazol-1-yl)-2-azaspiro[3.3]heptane-2-carbonyl]-3,3a,4,5,6,6a-hexahydro-1H-cyclopenta[c]pyrrol-5-yl]oxy]-5-(trifluoromethyl) benzonitrile]",10.4

# Stronger by IC50, values ahead:
row,IC50 [nM],Compound
1,1.1,"CC(C)(C)Cc1nc(-c2ccc(C(=O)N3CC4(CC(n5cnc(C6CC6)n5)C4)C3)cc2)no1 [Example 88, [6-(3-cyclopropyl-1,2,4-triazol-1-yl)-2-azaspiro[3.3]heptan-2-yl]−[4-[5-(2,2-dimethylpropyl)-1,2,4-oxadiazol-3-yl]phenyl]methanone]"
2,4,"CC(C)(C)c1nc(-c2ccc(C(=O)N3CC4(CC(n5cnc(C6CCC6)n5)C4)C3)cc2)no1 [Example 90, [4-(5-tert-butyl-1,2,4-oxadiazol-3-yl)phenyl]−[6-(3-cyclobutyl-1,2,4-triazol-1-yl)-2-azaspiro[3.3]heptan-2-yl]methanone]"
3,0.2,"O=C(N1CC(Oc2cccc(C3CC3)c2Cl)C1)N1CC2(CC(n3cnc(C4CC4)n3)C2)C1 [Example 94, (3-(2-chloro-3-cyclopropylphenoxy)azetidin-1-yl)(6-(3-cyclopropyl-1H-1,2,4-triazol-1-yl)-2-azaspiro[3.3]heptan-2-yl)methanone]"
4,1.2,"O=C(N1CC(Oc2ccc(Cl)c(C3CC3)c2)C1)N1CC2(CC(n3cnc(C4CC4)n3)C2)C1 [Example 95, (3-(4-chloro-3-cyclopropylphenoxy)azetidin-1-yl)(6-(3-cyclopropyl-1H-1,2,4-triazol-1-yl)-2-azaspiro[3.3]heptan-2-yl)methanone]"
5,2.7,"O=C(N1CC(Oc2ccc(C(F)(F)F)cc2F)C1)N1CC2(CC(n3cnc(C4CC4)n3)C2)C1 [Example 96, (6-(3-cyclopropyl-1H-1,2,4-triazol-1-yl)-2-azaspiro[3.3]heptan-2-yl)(3-(2-fluoro-4-(trifluoromethyl)phenoxy)azetidin-1-yl)methanone]"
6,3.4,"Cc1ccc(OC2CN(C(=O)N3CC4(CC(n5cnc(C6CC6)n5)C4)C3)C2)c(Cl)c1 [Example 97, (3-(2-chloro-4-methylphenoxy)azetidin-1-yl)(6-(3-cyclopropyl-1H-1,2,4-triazol-1-yl)-2-azaspiro[3.3]heptan-2-yl)methanone]"
7,2.8,"O=C(N1CC(Oc2ccc(Cl)cc2Cl)C1)N1CC2(CC(n3cnc(C4CC4)n3)C2)C1 [Example 98, (6-(3-cyclopropyl-1H-1,2,4-triazol-1-yl)-2-azaspiro[3.3]heptan-2-yl)(3-(2,4-dichlorophenoxy)azetidin-1-yl)methanone]"
8,3.9,"O=C(N1CC(OCc2ccc(S(F)(F)(F)(F)F)cc2F)C1)N1CC2(CC(n3cnc(C4CC4)c3)C2)C1 [Example 105, [6-(4-cyclopropylimidazol-1-yl)-2-azaspiro[3.3]heptan-2-yl]-[3-[[2-fluoro-4-(pentafluoro-λ^6-sulfanyl)phenyl]methoxy]azetidin-1-yl]methanone]"
9,4.1,"Cc1ccc(COC2CN(C(=O)N3CC4(CC(n5cnc(C6CC6)c5)C4)C3)C2)cc1C(F)(F)F [Example 106, [6-(4-cyclopropylimidazol-1-yl)-2-azaspiro[3.3]heptan-2-yl]-[3-[[4-methyl-3-(trifluoromethyl)phenyl]methoxy]azetidin-1-yl]methanone]"
10,4.7,"O=C(N1CC(C#Cc2ccccc2C(F)F)C1)N1CC2(CC(n3cnc(C4CC4)n3)C2)C1 [Example 107, [6-(3-cyclopropyl-1,2,4-triazol-1-yl)-2-azaspiro[3.3]heptan-2-yl]-[3-[2-[2-(difluoromethyl)phenyl]ethynyl]azetidin-1-yl]methanone]"
11,4.3,"N#Cc1ccc(OC2CC3(C2)CN(C(=O)N2CC4(CC(n5cnc(C6CC6)n5)C4)C2)C3)c(F)c1 [Example 111, 4-[[2-[6-(3-cyclopropyl-1,2,4-triazol-1-yl)-2-azaspiro[3.3]heptane-2-carbonyl]-2-azaspiro[3.3]heptan-6-yl]oxy]-3-fluoro-benzonitrile]"
12,6,"O=C(N1C[C@H]2C[C@H](Oc3ccc(OC(F)F)cc3F)C[C@H]2C1)N1CC2(CC(n3cnc(C4CC4)n3)C2)C1 [Example 112, [6-(3-cyclopropyl-1,2,4-triazol-1-yl)-2-azaspiro[3.3]heptan-2-yl]−[rac-(3aS,6aR)-5-[4-(difluoromethoxy)-2-fluoro-phenoxy]-3,3a,4,5,6,6a-hexahydro-1H-cyclopenta[c]pyrrol-2-yl]methanone]"
13,4.8,"O=C(N1C[C@H]2C[C@H](Oc3ccc(C(F)(F)F)cc3)C[C@H]2C1)N1CC2(CC(n3cnc(C4CC4)n3)C2)C1 [Example 113, [6-(3-cyclopropyl-1,2,4-triazol-1-yl)-2-azaspiro[3.3]heptan-2-yl]-[rac-(3aS,6aR)-5-[4-(trifluoromethyl)phenoxy]-3,3a,4,5,6,6a-hexahydro-1H-cyclopenta[c]pyrrol-2-yl]methanone]"
14,2.4,"O=C(N1C[C@H]2C[C@H](Oc3ccc(C(F)(F)F)c(Cl)c3)C[C@H]2C1)N1CC2(CC(n3cnc(C4CC4)n3)C2)C1 [Example 115, [6-(3-cyclopropyl-1,2,4-triazol-1-yl)-2-azaspiro[3.3]heptan-2-yl]-[rac-(3aS,6aR)-5-[3-chloro-4-(trifluoromethyl)phenoxy]-3,3a,4,5,6,6a-hexahydro-1H-cyclopenta[c]pyrrol-2-yl]methanone]"
15,2.7,"COc1cc(C(F)(F)F)ccc1O[C@H]1C[C@@H]2CN(C(=O)N3CC4(CC(n5cnc(C6CC6)n5)C4)C3)C[C@@H]2C1 [Example 116, [6-(3-cyclopropyl-1,2,4-triazol-1-yl)-2-azaspiro[3.3]heptan-2-yl]-[rac-(3aS,6aR)-5-[2-methoxy-4-(trifluoromethyl)phenoxy]-3,3a,4,5,6,6a-hexahydro-1H-cyclopenta[c]pyrrol-2-yl]methanone]"
